Assays:
[1] = test system: mouse 3T3 L1 preadipocytes; test: Viability of mouse 3T3 L1 preadipocytes (Cell Titer Blue); assay type: cell-based; details: 10 μM
Experimental: Viability of mouse 3T3 L1 preadipocytes (ATCC, Mannassas, VA) cultured in a 96-well plate following treatment with 10 μM Compound A and analogs Compounds B, D, E, G and H was assessed using Cell Titer Blue (Promega (Madison, WI)) according to manufacturer's instructions. […] To evaluate how the efficacy of Compound A in reducing lipid accumulation altered with substrate availability, studies were performed in differentiating mouse 3T3-L1 pre-adipocytes using charcoal stripped serum to reduce substrate concentration and also with added exogenous palmitate as the substrate. 3T3-L1 cells were plated at 6000 cells/cm^2 and cultured until confluence at 37° C. in a humidified incubator in 95% air/5% CO2. Two days post-confluence pre-adipocyte differentiation was initiated using adipocyte differentiation medium containing DMEM with high glucose, 10% fetal bovine serum, insulin (1.7 μM), dexamethasone (1 μM), IBMX (0.5 mM), PPARy agonist Rosiglitazone, (1 μM) with penicillin and streptomycin with 10 nM compound A or vehicle (0.1% DMSO). Seventy two hours following the initiation of differentiation, media was replaced with adipocyte maintenance media containing DMEM with high glucose and insulin (1.7 μM) with 10 nM compound A or vehicle (0.1% DMSO) (FIG. 12). Serum composed of 100% FCS or that containing 20, 40, 60, 80 or 100% charcoal stripped serum (cFCS). For experiments where sodium palmitate was added the serum comprised of a 90:10 ratio of FCS:cFCS with 5.0 or 50 μM palmitate/bovine-serum albumin (BSA) complex. Sodium palmitate was conjugated to BSA for use in experiments and was prepared by dissolving to 100 mM in 200 proof ethanol. The palmitate was diluted to 20 mM with D-PBS. The palmitate was then further diluted 1:1 with 30% fatty acid free albumin and incubated overnight at 37° C. The solution was sterile filtered with a 0.22 micron syringe filter prior to treating cells. The BSA control was prepared in the same manner, without the fatty acid. For the studies in which palmitate was added the media additionally contained palmitate/BSA complex at the same concentration as that used during the differentiation stage. Following a further forty-eight hours or ninety-six hours of incubation (Day 6 or Day 8 respectively) the media was removed, wells rinsed with PBS, and 200 μL PBS was added. Five microliters of AdipoRed™ reagent was added to each well, mixed, and allowed to stand at room temperature for 10 mins. Triglyceride was quantitated in a fluorimeter (i3 SpectraMax, Molecular Devices) using ? ex 530 nm and ? em 590 nm to determine relative fluorescent units (RFU). Percent inhibition of triglyceride accumulation in Compound A treated 3T3-L1 adipocytes compared to those treated with vehicle under each condition was calculated by using the formula; % Triglyceride Compound A treated adipocytes=100*(RFU Compound A treated adipocytes/RFU vehicle treated adipocytes).

[2] = Analog solubility in TSAG3 gel vehicle (minus Carbopol); assay type: physicochemical; details: for Supernatant concentration Mean (N = 2-3) mg/g at RT after 4 days equilibration / Visual observation of sample after 4 days: TSAG3 gel vehicle minus 1% w/w Carbopol, 30 mg/g added, 20-23° C.
Experimental: In order to assess the compatibility with the modified TSAG3 gel formulation, several analogs were saturated in the gel components at room temperature (20-23° C.). The method used was as follows: Each analog at the equivalent of 30 mg/g was added to 500 microliters of the gel vehicle (minus the 1% w/w Carbopol as this made the gel too viscous) and allowed to equilibrate using a gently rotating, rotisserie sample holder that was allowed to come to equilibrium over 4 days. The samples were visually observed, filtered and diluted for analysis via HPLC in a concentrations range predetermined to be in a linear range for analyte detection. It is believed that Carbopol makes little difference to the equilibrium solubility at the 1% w/w level but may possibly prevent precipitation of super−saturated solutions of drug initially over 24-48 hours which is a further reason for taking it out to better assess the drug solubility in the remainder of the formulation.

[3] = test system: Mouse melanoma cells (B16F10); test: Cytotoxicity in mouse melanoma cells (CellTiter-Glo); assay type: cell-based; details: for effect of oleic acid on cytotoxicity: B16F10, oleic acid at 25 μM in the media
Experimental: (§1) Mouse melanoma cells (B16F10) (American Type Culture Collection (ATCC), Manassas, VA) were cultured in Dulbecco's minimal essential media (DMEM) containing 10% fetal bovine serum, (Thermofisher, Waltham, MA). Cells were plated at a density of 5,000 cells per well into a 96-well plate and allowed to attach for 24 h in a 37° C. humidified incubator with a 5% CO2 atmosphere. Media was replaced with that containing test agents or vehicle (0.1% dimethylsulphoxide) and cells incubated for a further 48 h. Cell viability was assessed using CellTiter-Glo® (Promega).
(§2) An oleate-bovine serum albumin (BSA) conjugate was prepared by dissolving sodium oleate to 100 mM in methanol. The oleate was diluted to 20 mM with PBS and further diluted 1:1 with 30% fatty acid free albumin and incubated overnight at 37° C. The solution was sterile filtered prior to treating cells. The BSA control was prepared in the same manner, without the fatty acid. […] Non-linear regression analysis was performed using GraphPad PRISM®.

[4] = as above; assay type: cell-based; details: mouse, B16F10 mouse melanoma cells; B16F10, 48 h, representative experiment
Experimental: as §1, §2

[5] = test system: HSC-1 human squamous carcinoma cells; test: Cytotoxicity in human squamous carcinoma cells (CellTiter-Glo); assay type: cell-based; details: HSC-1, 72 h, 1% FBS, representative experiment, read-out: EC50 (cell viability)
Experimental: The human skin squamous carcinoma line (HSC) (Japanese Collection of Research Bioresources Cell Bank (JCRB)) was cultured in Dulbecco's minimal essential media (DMEM) containing 20% fetal bovine serum (FBS), (Thermofisher, Waltham, MA). Cells were plated at a density of 5,000 cells per well into a 96-well plate and allowed to attach for 24 h in a 37° C. humidified incubator with a 5% CO2 atmosphere. Media was replaced with that containing test agents or vehicle (0.1% dimethylsulphoxide) in 1% FBS and cells incubated for a further 72 h. Cell viability was assessed using CellTiter-Glo® (Promega). Non-linear regression analysis was performed using GraphPad PRISM®.

B16F10 cells = test: Melanin production in B16F10 melanoma cells; assay type: cell-based, mouse; details: 10 nM, 48 h
Experimental: B16F10 cells were plated at 150,000 cells per well into a 6-well plate and allowed to attach for 24 h in a 37° C. humidified incubator with a 5% CO2 atmosphere. Media was replaced with that containing test agents or vehicle (0.1% DMSO) and cells incubated for a further 48 h. Wells were washed once with PBS and cells removed by trypsinization and transferred to eppendorf tubes. Tubes were centrifuged at 1000 g for 10 minutes and the cell pellet resuspended in 0.5 mls PBS. Since compound A and analogs caused a reduction in cell viability the relative cell number per well was determined by taking an aliquot of the cell suspension in PBS and using CellTiter Glo® to determine the relative number of viable cells (Figure XX5). The PBS/cell suspension was centrifuged at 1000 g for 10 mins and the cell pellet resuspended in 1N NaOH/10% DMSO (v/v) and the tubes heated in a dry heating block at 80° C. with occasional vortexing to mix. In parallel a standard curve of melanin was prepared in 1N NaOH/10% DMSO using Sepia melanin (Sigma, St. Louis, MO) and standards also heated at 80° C. for 1 h. Samples and standards were centrifuged at 3000 g for 5 minutes and aliquots of the supernatant transferred to a 96-well plate for determination of melanin using Abs 475 nm. Melanin cellular content was interpolated from a standard curve and corrected based on the relative cell number in the sample.

[6] = test system: Human subcutaneous pre-adipocytes; test: Lipid accumulation in differentiating primary human adipocytes (AdipoRed); assay type: cell-based; details: Adipocyte, 144 h, six days, read-out: IC50, reduction in lipid accumulation
Experimental: Human subcutaneous pre-adipocytes (Zenbio (RTP, NC, U.S.A.)) were received pre-plated in white-walled 96-well plates. A schematic description of the protocol used for examining the effects of Compound A on lipid accumulation in differentiating human adipocytes is shown in FIG. 9. Upon arrival of cells (Day 1) 150 μL media in the wells was replaced with adipocyte differentiation media (Zenbio (RTP, NC, U.S.A.)). The following day media was replaced as described for Day 1. Media was subsequently replaced as described every two to three days. On Day 6, 150 μL of the adipocyte differentiation media was replaced with vehicle (0.1% DMSO), or the SCD1 inhibitors at the concentrations indicated. […] Cytotoxicity following incubation of adipocytes with Compound A was determined in separate wells, not used for Adipored™ staining, and was measured using CellTiter-Glo® (Promega (Madison, WI)) according to the manufacturer's instructions. Following a 10 min room temperature incubation the luminescence measured as relative light units (RLU) was determined in a luminescent plate reader. For adipocytes treated with concentrations of 1.2-100 nM Compound A for 6 days, cell viability as determined by RLU following CellTiter-Glo® remained greater than 75% of the value obtained with vehicle-treated adipocytes. […]

SMILES	Supernatant concentration Mean (N = 2-3) mg/g at RT after 4 days equilibration [2]	Visual observation of sample after 4 days [2]	solubility as % of Compound A solubility ([2]; TSAG3 gel vehicle minus Carbopol)	IC50 [6]	cell viability compared to vehicle treated cells [1]	reduction of cell viability ([3]; B16F10, 48 h, up to 100 nM)	EC50 at 48 h [4]	effect of oleic acid on cytotoxicity [3]	EC50 [5]	melanin content (B16F10 cells)
O=C(COc1ccc(CO)cc1)N1CC[C@H](Oc2cccc(C(F)(F)F)c2)C1 [Compound D]	28.35 mg/g	Clear solution			No loss in cell viability					
O=C(COc1ccc(CO)cc1)N1CC[C@H](Oc2ccc(C(F)(F)F)cc2)C1 [Compound E]	23.18 mg/g	Visible precipitate	about 77%		No loss in cell viability	did not reduce the viability				
O=C(COc1ccc(CO)cc1)N1CC[C@H](Oc2ccccc2OC(F)(F)F)C1 [Compound G]	28.78 mg/g	Clear solution		24.2 nM	No loss in cell viability		4.3 nM	prevented the cytotoxic effect	9.2 nM	increase in melanin

Further lines, with some results ahead:

Supernatant concentration Mean (N = 2-3) mg/g at RT after 4 days equilibration [2]	Visual observation of sample after 4 days [2]	solubility as % of Compound A solubility ([2]; TSAG3 gel vehicle minus Carbopol)	IC50 [6]	SMILES	cell viability compared to vehicle treated cells [1]	reduction of cell viability ([3]; B16F10, 48 h, up to 100 nM)	EC50 at 48 h [4]	effect of oleic acid on cytotoxicity [3]	EC50 [5]	melanin content (B16F10 cells)
28.46 mg/g	Clear solution			O=C(COc1ccc(CO)cc1)N1CC[C@H](Oc2ccccc2)C1 [Compound B]	No loss in cell viability					
27.89 mg/g	Clear solution		56 nM	Cc1ccccc1O[C@H]1CCN(C(=O)COc2ccc(CO)cc2)C1 [Compound H]	No loss in cell viability		46 nM	prevented the cytotoxic effect		

From patent US20240307388A1, “FORMULATIONS FOR SUBSTITUTED 3-PYRROLIDINES, COMPOSITIONS CONTAINING, AND USES OF SAME” (LIPIDIO PHARMACEUTICALS, INC., priority 2016, published 2024)
